The target in data set [1] is binding between NRF2 and KEAP1 (Homo sapiens (Human), UniProt Q14145). Put plainly: Binding assay: inhibition of binding between NRF2 and KEAP1 by BRET (NanoLuc-NRF2 and KEAP1-HaloTag cell lysates). Conditions: N=2. Here is the method: The inhibitory activity of each compound on the binding between NRF2 and KEAP1 was measured by bioluminescence resonance energy transfer (BRET) assay. A plasmid having human NRF2 (Original Clone ID: ha01449s1) sequence fused with NanoLuc (19 kDa, Promega) at the N-terminal was transduced into HCE-T cells (immortalized human corneal epithelial cells) using FuGENE HD (Promega). 48 hours after transduction, the cell lysate was collected and used as an NRF2-expressing cell lysate. A plasmid having human KEAP1 (Original Clone ID: cs00328) sequence fused with HaloTag (33 kDa, Promega) at the C-terminal was transduced into HCE-T cells using FuGENE HD (Promega). After 24 hours, HaloTag Nano BRET 618 Ligand (Promega) was added to the medium. The cell lysate cultured for 24 hours after the addition was used as a KEAP1-expressing cell lysate.
The NRF2-expressing cell lysate and the KEAP1-expressing cell lysate were adjusted so that the luminescence and fluorescence intensities per well were constant. Tables 1 and 2 show the formulation of each reaction solution.
Each test substance at a concentration 100 times higher than the test concentration was dissolved in dimethylsulfoxide for adjustment. 49 μL of KEAP1 solution was added to a 96-well polystyrene microplate (FALCON) to which 1 μL of each test substance solution was added, followed by incubation for 15 minutes. Then, 50 μL of NRF2 solution was added to the above solution, followed by incubation for 1 hour. To measure the binding between NRF2 and KEAP1, NanoBRET Nano-Glo Substrate (Promega) diluted with Opti-Mem (Thermo Fisher Scientific) was added, followed by shaking for 30 seconds. Then, luminescence and fluorescence were measured using the GloMax Discover System (Promega). A 495-nm short pass filter and a 600-nm long pass filter were respectively used to measure donor and acceptor emission values. A value obtained by dividing the acceptor emission value by the donor emission value was regarded as BRET value. A BRET value when the compound was not added, and a BRET value when the KEAP1 solution was not added were respectively used as binding rates of 100% and 0%, and the binding rate when the compound was added was calculated. Further, using this binding rate, the 50% binding inhibitory activity concentration (IC50) was calculated from the following formula. The test was performed at N=2.
IC50(M)=10^(LOG(A/B)×(50−C)/(D−C)+LOG(B)) • A: higher concentration out of 2 close concentrations across the inhibition rate of 50% • B: lower concentration out of 2 close concentrations across the inhibition rate of 50% • C: inhibition rate at B • D: inhibition rate at A
(§1) Compounds A1/A2, compounds B1/B2, compounds C1/C2, and compounds D1/D2 were used as test substances. Binding assay and reporter assay were performed as in Test Example 1-1 and Test Example 1-2.
For orientation: Bioluminescence resonance energy transfer reports proximity on the nanometre scale.

A further data set has as its system NRF2. The experiment in a line: Reporter assay: NRF2 activating action in HCE-T/ARE-Luc cells (ARE luciferase reporter gene assay). It counts as cell-based, human. Conditions: N=3. Here is the method: The NRF2 activating action of the compounds on cells was measured by a reporter gene assay. pGL4.37[luc2P/ARE/Hygro] (Promega) was introduced into HCE-T cells using FuGENE HD. Cells that acquired drug resistance as a result of transduction were screened by culture in the presence of 50 μg/mL hygromycin, and a clone strain, HCE-T/ARE-Luc cells, was established.
HCE-T/ARE-Luc cells were cultured using DMEM/F12 medium containing 10 ng/mL hEGF, 5 μg/mL insulin, 5% FBS, and 40 μg/mL gentamicin. As the assay medium, a medium with the same composition as that for the culture was prepared using phenol red-free DMEM/F12 medium.
HCE-T/ARE-Luc cells were seeded in a 96-well polystyrene microplate (FALCON) with 10000 cells per well. The cells were incubated in a CO2 incubator at 37° C. for 16 hours to allow for cell adhesion. The test substance was dissolved in dimethylsulfoxide to prepare a solution at a concentration 1000 times higher than the test concentration. The cells were treated with the test substance diluted 1000-fold with the assay medium and cultured for 24 hours. When measuring the activity of the reporter, the medium containing the test substance was removed, and then a new medium and a substrate of ONE-GloEX Luciferase Assay System (Promega) were added. The plate was shaken for 1 minute and then allowed to stand at ordinary temperature for 10 minutes, and luminescence was detected using the GloMax Discover System (Promega).
The test was performed at N=3, and the 50% activation concentration of each test substance was calculated by creating a calibration curve between two concentrations across the luminescence incensity of 50%.
as §1

The test system of another data set is HCE-T cells. Put plainly: Cell viability test in HCE-T cells (Cell Counting Kit-8, 24 hours). In kind it is cell-based, human. Conditions: mean, N=3. Here is the method:
To confirm cell viability, HCE-T cells were seeded at 10000 cells per well in a 96-well polystyrene microplate (IWAKI). The cells were cultured in a CO2 incubator at 37° C. for 16 hours to allow the cells to adhere. The culture of the HCE-T cells was performed using DMEM/F12 medium containing 10 ng/mL hEGF, 5 μg/mL insulin, 5% FBS, and 40 μg/mL gentamicin.
Each test substance was dissolved in dimethyl sulfoxide to prepare a stock solution with a concentration that is 1000 times the test concentration. DMEM/F12 medium containing 40 μg/mL gentamicin was used as assay medium. The medium containing serum and growth factors was removed and replaced with assay medium in which each test substance was appropriately serially diluted, and the cell viability was measured after 24 hours. Cell Counting Kit-8 (Dojindo Laboratories) was added to each well in an amount that is 1/10 the amount of the medium. Color reaction was performed for 1 hour in a CO2 incubator, and absorbance at 450 nm was measured with a microplate reader (Corona Electric Co., Ltd.). […] The test was performed at N=3.
(Tetrazolium assays rely on reduction of a dye to a coloured formazan, in cell work by metabolically active cells.)

[2] abbreviates: Test Example 3, separated diastereomers, mean.
[3] abbreviates: Test Example 1-1, NRF2-KEAP1 BRET.

Marks after values point to notes of the source that are not given here.

The text below walks through data of patent publication US20240132519A1, “NRF2-ACTIVATING COMPOUND” (SENJU PHARMACEUTICAL CO., LTD., priority 2020, published 2024).

binding between NRF2 and KEAP1, sequence (Q14145 whole entry, the tested form may be a part): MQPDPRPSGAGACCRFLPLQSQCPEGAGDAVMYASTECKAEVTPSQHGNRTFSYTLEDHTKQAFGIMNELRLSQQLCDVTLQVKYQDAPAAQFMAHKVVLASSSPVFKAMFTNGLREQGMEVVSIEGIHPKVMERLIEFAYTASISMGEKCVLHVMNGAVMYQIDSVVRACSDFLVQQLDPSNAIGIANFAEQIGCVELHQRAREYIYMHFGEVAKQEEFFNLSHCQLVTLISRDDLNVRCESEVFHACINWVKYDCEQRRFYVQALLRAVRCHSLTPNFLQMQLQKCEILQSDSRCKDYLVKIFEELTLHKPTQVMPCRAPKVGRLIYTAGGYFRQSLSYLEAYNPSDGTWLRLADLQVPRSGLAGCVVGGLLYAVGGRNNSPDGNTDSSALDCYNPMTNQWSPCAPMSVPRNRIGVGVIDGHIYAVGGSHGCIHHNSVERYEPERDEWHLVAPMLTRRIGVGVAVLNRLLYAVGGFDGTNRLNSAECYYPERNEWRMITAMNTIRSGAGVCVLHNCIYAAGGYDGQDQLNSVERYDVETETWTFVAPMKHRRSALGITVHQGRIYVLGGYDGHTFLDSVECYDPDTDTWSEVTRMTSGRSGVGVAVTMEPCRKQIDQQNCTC

The IC50 is the point on the concentration scale where inhibition reaches its midpoint. One may read the EC50 as the midpoint of the concentration-response curve. The molecule `CC[C@@H]1CN(Cc2cc([C@@H](c3ccc(C(C)=O)s3)[C@@H](C)C(=O)O)ccc2C)S(=O)(=O)c2ccccc2O1` [Compound A1, (2R,3S)-3-(5-acetylthiophen-2-yl)-3-(3-{[(R)-4-ethyl-1,1-dioxide-3,4-dihydro-2H-benzo[b][1,4,5]oxathiazepin-2-yl]methyl}-4-methylphenyl)-2-methylpropanoic acid] registered an IC50 in data set [1] (setting [2]) of 0.14 nM. The same molecule gave an EC50 in the data set on NRF2 (setting [2]) of 5.82 nM. The “Cytotoxic concentration (concentration that does not affect cell viability)” value in the data set on HCE-T cells was found to be 111.4 µM.

Turning to `CC[C@@H]1CN(Cc2cc([C@@H](c3cc(OC)c(C(C)=O)s3)[C@@H](C)C(=O)O)ccc2C)S(=O)(=O)c2cnccc2O1` [Compound C1, (2R,3S)-3-(5-acetyl-4-methoxythiophen-2-yl)-3-(3-{[(R)-4-ethyl-1,1-dioxide-3,4-dihydro-2H-pyrido[4,3-b][1,4,5]oxathiazepin-2-yl]methyl}-4-methylphenyl)-2-methylpropanoic acid], the 50% inhibitory concentration (IC50) in data set [1] (setting [2]) was 0.15 nM. For the same molecule, the EC50 in the data set with NRF2 (setting [2]) came to 3.12 nM. The “Cytotoxic concentration (concentration that does not affect cell viability)” value in the data set on HCE-T cells is 53.5 µM.

In data set [1] (setting [3]), `CC[C@@H]1CN(Cc2cc(C(c3cc(C)c(C(C)=O)s3)C(C)C(=O)O)ccc2C)S(=O)(=O)c2ccccc2O1` (stereo partly drawn) [Compound 2, 3-(5-acetyl-4-methylthiophen-2-yl)-3-(3-{[(R)-4-ethyl-1,1-dioxide-3,4-dihydro-2H-benzo[b][1,4,5]oxathiazepin-2-yl]methyl}-4-methylphenyl)-2-methylpropanoic acid] gave an IC50 of 0.25 nM. Besides, the response in the data set with NRF2 (Homo sapiens, Test Example 1-2, HCE-T/ARE-Luc cells, 24 hours) was half-maximal at 9 nM (EC50).

As to `CC[C@@H]1CN(Cc2cc(C(c3ccc(C(C)=O)s3)C(C)(C)C(=O)O)ccc2C)S(=O)(=O)c2cnccc2O1` (single isomer, unassigned) [Compound D2], in data set [1] (setting [2]), the IC50 was determined as 5.17 nM. For the same molecule, the half-maximal effective concentration (EC50) in the data set with NRF2 (setting [2]) is 513 nM. For the same molecule, in the data set on HCE-T cells, the “Cytotoxic concentration (concentration that does not affect cell viability)” value is 14.7* uM.

The molecule `CC[C@@H]1CN(Cc2cc(C(c3ccc(C(C)=O)s3)[C@H](C)C(=O)O)ccc2C)S(=O)(=O)c2ccccc2O1` (stereo partly drawn) [Compound A2] displayed an IC50 in data set [1] (setting [2]) of 0.71 nM. In addition, the response in the data set on NRF2 (setting [2]) was half-maximal at 317 nM (EC50). In addition, the “Cytotoxic concentration (concentration that does not affect cell viability)” value in the data set with HCE-T cells is 65.3** uM.

In the case of `CC[C@@H]1CN(Cc2cc([C@@H](c3ccc(C(C)=O)s3)[C@@H](C)C(=O)O)ccc2C)S(=O)(=O)c2cnccc2O1` [Compound B1, (2R,3S)-3-(5-acetylthiophen-2-yl)-3-(3-{[(R)-4-ethyl-1,1-dioxide-3,4-dihydro-2H-pyrido[4,3-b][1,4,5]oxathiazepin-2-yl]methyl}-4-methylphenyl)-2-methylpropanoic acid], in data set [1] (setting [2]), the half-maximal inhibitory concentration (IC50) came out at 0.17 nM. In the data set on NRF2 (setting [2]), the EC50 worked out at 0.98 nM. Besides, the “Cytotoxic concentration (concentration that does not affect cell viability)” value in the data set with HCE-T cells was found to be 345.4 µM.

`CC[C@@H]1CN(Cc2cc(C(c3ccc(C(C)=O)s3)C(C)(C)C(=O)O)ccc2C)S(=O)(=O)c2cnccc2O1` (single isomer, unassigned) [Compound D1] displayed a concentration for half-maximal inhibition (IC50) in data set [1] (setting [2]) of 0.17 nM. The molecule also yielded a concentration giving a half-maximal response (EC50) in the data set with NRF2 (setting [2]) of 0.67 nM. Further, the “Cytotoxic concentration (concentration that does not affect cell viability)” value in the data set with HCE-T cells worked out at 34.1 µM.

Molecule `CC[C@@H]1CN(Cc2cc(C(c3ccc(C(C)=O)s3)[C@H](C)C(=O)O)ccc2C)S(=O)(=O)c2cnccc2O1` (stereo partly drawn) [Compound B2] displayed an IC50 in data set [1] (setting [2]) of 1.01 nM. The EC50 in the data set on NRF2 (setting [2]) was 90.1 nM. In the data set on HCE-T cells, the “Cytotoxic concentration (concentration that does not affect cell viability)” value is recorded as 181.1* uM.

In data set [1] (setting [3]), `CC[C@@H]1CN(Cc2cc(C(c3ccc(C(C)=O)s3)C(C)C(=O)O)ccc2C)S(=O)(=O)c2cnccc2O1` (stereo partly drawn) [Compound 16, 3-(5-acetylthiophen-2-yl)-3-(3-{[(R)-4-ethyl-1,1-dioxide-3,4-dihydro-2H-pyrido[4,3-b][1,4,5]oxathiazepin-2-yl]methyl}-4-methylphenyl)-2-methylpropanoic acid] registered a concentration for half-maximal inhibition (IC50) of 0.2 nM.

On to `CC[C@@H]1CN(Cc2cc(C(c3cc(F)c(C(C)=O)s3)C(C)C(=O)O)ccc2C)S(=O)(=O)c2cnccc2O1` (stereo partly drawn) [Compound 52, 3-(5-acetyl-4-fluorothiophen-2-yl)-3-(3-{[(R)-4-ethyl-1,1-dioxide-3,4-dihydro-2H-pyrido[4,3-b][1,4,5]oxathiazepin-2-yl]methyl}-4-methylphenyl)-2-methylpropanoic acid], for which the IC50 in data set [1] (setting [3]) turned out to be 0.27 nM.

In the case of `CC[C@@H]1CN(Cc2cc(C(CC(=O)O)c3ccc(C(C)=O)s3)ccc2C)S(=O)(=O)c2cnccc2O1` (stereo partly drawn) [Compound 53, 3-(5-acetylthiophen-2-yl)-3-(3-{[(R)-4-ethyl-1,1-dioxide-3,4-dihydro-2H-pyrido[4,3-b][1,4,5]oxathiazepin-2-yl]methyl}-4-methylphenyl)propanoic acid], in data set [1] (setting [3]), the IC50 amounted to 2.3 nM.

In data set [1] (setting [3]), “3-[5-(cyclopropanecarbonyl)thiophen-2-yl]-3-(3-{[(R)-4-ethyl-1,1-dioxide-3,4-dihydro-2H-benzo[b][1,4,5]oxathiazepin-2-yl]methyl}-4-methylphenyl)propanoic acid [Compound 20]” returned an IC50 of 24 nM.

For `CC[C@@H]1CN(Cc2cc(C(c3cc(OC)c(C(C)=O)s3)[C@H](C)C(=O)O)ccc2C)S(=O)(=O)c2cnccc2O1` (stereo partly drawn) [Compound C2], the 50% inhibitory concentration (IC50) in data set [1] (setting [2]) is 0.89 nM. In the data set with NRF2 (setting [2]), this molecule registered an EC50 of 777 nM. In the data set on HCE-T cells, the “Cytotoxic concentration (concentration that does not affect cell viability)” value was 30.7* uM.

The molecule `CC[C@@H]1CN(Cc2cc(C(c3ccc(C(C)=O)s3)C(C)(C)C(=O)O)ccc2C)S(=O)(=O)c2c(F)cccc2O1` (stereo partly drawn) [Compound 9, 3-(5-acetylthiophen-2-yl)-3-(3-{[(R)-4-ethyl-9-fluoro-1,1-dioxide-3,4-dihydro-2H-benzo[b][1,4,5]oxathiazepin-2-yl]methyl}-4-methylphenyl)-2,2-dimethylpropanoic acid] yielded an IC50 in data set [1] (setting [3]) of 0.3 nM.

Consider `CC(=O)c1ccc(C(c2ccc(C)c(CN3CC(CCOCc4ccccc4)Oc4ccccc4S3(=O)=O)c2)C(C)C(=O)O)s1` (stereo not drawn) [Compound 13, 3-(5-acetylthiophen-2-yl)-3-[3-({4-[2-(benzyloxy)ethyl]-1,1-dioxide-3,4-dihydro-2H-benzo[b][1,4,5]oxathiazepin-2-yl}methyl)-4-methylphenyl]-2-methylpropanoic acid], for which, in data set [1] (setting [3]), the half-maximal inhibitory concentration (IC50) was found to be 0.5 nM.

On to `CC[C@@H]1CN(Cc2cc(C(CC(=O)O)c3csc(C(C)=O)c3)ccc2C)S(=O)(=O)c2ccccc2O1` (stereo partly drawn) [Compound 15, 3-(5-acetylthiophen-3-yl)-3-(3-{[(R)-4-ethyl-1,1-dioxide-3,4-dihydro-2H-benzo[b][1,4,5]oxathiazepin-2-yl]methyl}-4-methylphenyl)propanoic acid], for which the IC50 in data set [1] (setting [3]) was 1.4 nM.
